Measurements as given in patent US6399583B1, “Hybrid anthracyclines from genetically engineered streptomyces galilaeus strains, process for production and uses thereof” (Galilaeus Oy, priority 1998, dated 2002).
pEC50: −log10 of the molar value. Where two headings read alike, the source gives them in different places.

Assays:
[1] = test system: MES-SA human uterine sarcoma cells; experiment: Cytotoxicity assay, luminescence ATP detection, MES-SA; format: cell-based; settings: three days incubation, ATP content, highest concentration 10^-5 M, read-out: ED50 (nM) MES-SA
Experimental: (§1) The cytotoxicities of the new anthracyclines were tested in vitro with two cell lines: human uterine sarcomas MES-SA (CRL-1976; American Type Culture Collection (ATCC), Rockville, Md., USA) and MES-SA/D×5 (CRL-1977; ATCC, Rockville, Md., USA). MES-SA/D×5 has been developed by growing MES-SA cells in increasing concentrations of doxorubicin (Harker and Sikic, 1985).
(§2) Monolayer cultures were grown in McCoy's 5A medium with L-glutamine (Gibco BRL) supplemented with 10% FBS (Foetal Bovine Serum, Gibco BRL). No antibiotics were added. As the resistance is stable for at least 20 passages, the MES-SA/D×5 cells were grown without anthracycline selection (Harker and Sikic, 1985). Cells were maintained at 37° C. with 5% CO2 and subcultured every 3-5 days.
(§3) The cytotoxicity tests were performed in 96-well microtiter plates (sterile white plates with clear bottom, Corning Costar Corporation, Cambridge, Mass., USA). The anthracyclines were pipetted into the plates in 10 μl of ethanol, pure ethanol was used for control plates. Daunorubicin and aclarubicin were used as positive controls. When the ethanol had evaporated, the cells were seeded into the plates in 100 μl of appropriate medium. The number of cells seeded per well was 2500 with MES-SA, 3000 with MES-SA/D×5, 3000 with LL/2, 2000 with B16-F0 and B16-F1, 2000 with KLN-205 and 8000 with MLTC-1. The ATP content of the cells was measured after incubating the cells for three days at 37° C. with 5% CO2.
(§4) The growth medium was removed by turning the plates over, and 200 μl of ATP extraction reagent, Somalyze, were added to the wells. The plates were then incubated for 30 minutes at room temperature. The ATP measurement was performed with Luminoskan luminometer (Labsystems Oy, Helsinki, Finland) at 22° C. 20 μl of ATP monitoring reagent containing luciferin and luciferase was dispensed, and an integral measurement of 10 s with 2 s lag time was performed for each well. All reagents used were supplied by Bio-Orbit Oy, Turku, Finland.
(§5) The direct luminometer output (in relative light units, RLUS) was used to calculate the cytotoxic effect. This light signal is directly proportional to the amount of […] in a wide range (determined with Bio-Orbit ATP standard, data not shown). On the other hand, the amount of ATP is directly proportional to the amount of living cells (Kangas et al., 1984). The results are expressed as percentages of the control value of untreated cells. An IC50 value (the drug concentration resulting to an ATP signal of 50% of the untreated control signal) was graphically estimated from the % of control vs. drug concentration plot.

[2] = test system: KLN-205 lung squamous cell carcinoma; experiment: Cytotoxicity assay, ATP detection, KLN-205; format: cell-based, mouse; settings: KLN-205 cells in vitro, read-out: ED50 KLN-205
Experimental: as §3, §4, §5
(§6) H075-4a was also tested with several mouse cell lines in vitro (all were purchased from ATCC, Rockville, Md., USA): Lewis lung carcinoma (LL/2) (CRL-1642), B16-F0 melanoma (CRL-6322), B16-F1 melanoma (CRL-6323), KLN-205 lung squamous cell carcinoma (CRL-1453) and MLTC-1 leydig cell tumor (CRL-2065) using daunomycin, aclarubicin and H075-1a (MA 144U1) as references.
(§7) All cells grew as monolayers and were cultured at 37° C. with 5% CO2 according to ATCC standard instructions for each cell line: LL/2 in Dulbecco's modified Eagle's medium with 4.5 g/l glucose and 10% FCS, B16-F0 and B16-F1 in MEM (Eagle) in Earle's BSS with non-essential amino acids and 10% FCS, KLN-205 in MEM (Eagle) in Earle's BSS with non-essential amino acids and 10% FCS, MLTC-1 in RPMI 1640 with 25 mM HEPES and 10% FBS. All media were purchased from Gibco BRL, the serum was Gibco BRL Foetal Bovine Serum. […]

[3] = test system: SK-N-MC; experiment: Cytotoxicity assay, ATP detection, SK-N-MC; format: cell-based; settings: SK-N-MC cells in vitro; read-out: ED50 SK-N-MC
[4] = test system: MES-SA/D×5 uterine sarcoma cells (doxorubicin-resistant, MDR); experiment: Cytotoxicity assay, luminescence ATP detection, MES-SA/D×5; format: cell-based, human; settings: MES-SA/D×5 cells, three days incubation, ATP content, highest concentration 10^-5 M, read-out: ED50 (nM) MES-SA/D × 5
Experimental: as §1, §2, §3, §4, §5

[5] = test system: B16-F1 melanoma; experiment: Cytotoxicity assay, ATP detection, B16-F1; format: cell-based, mouse; settings: B16-F1 cells in vitro, read-out: ED50 B16-F1
Experimental: as §3, §4, §5, §6, §7

[6] = test system: P388 leukemia; experiment: Cytotoxic activity in vivo: P388 leukemia model; set-up: species or system mice; settings: 10^6 P388 cells i.p. day 0
Source text: P388 leukemia was maintained by serial intraperitoneal (i.p.) transplantations in DBA/2JBom female mice purchased from M & B A/S, Ry, Denmark. The animals were maintained at the facilities of Central Animal Laboratory, University of Turku. The management of the animal unit is based on and followed the guidelines: “European Convention for the protection of Vertebrate Animals used for Experimental and other Scientific Purposes, European Treaty Series No. 123 (EU No. 609/86), Official Journal of European Communities No. L 358, Strasbourg Nov. 24, 1986”, and “The Statute No. 1360/90 of the Finnish Law, Helsinki Dec. 21, 1990: Asetus kokeellisiin ja muihin tieteellisiin tarkoituksiin käytettävien selkärankaisten eläinten suojelemiseksi tehdyn eurooppalaisen yleissopimuksen voimaansaattamisesta. Suomen s{umlaut over (aa)}doskokoelma.”
The in vivo tests were started by injecting 10^6 P388 cells suspended in Dulbecco's phosphate buffered saline i.p. in mice on day 0. Groups of 3 mice were used. The drugs were administered i.p. on day 1 on the basis of individual body weight. The control group received vehicle (10% ethanol in Dulbecco's phosphate buffered saline).

[7] = test system: B16-F0 melanoma; experiment: Cytotoxicity assay, ATP detection, B16-F0; format: cell-based, mouse; settings: B16-F0 cells in vitro, read-out: ED50 B16-F0
Experimental: as §3, §4, §5, §6, §7

[8] = test system: MLTC-1 leydig cell tumor; experiment: Cytotoxicity assay, ATP detection, MLTC-1; format: cell-based, mouse; settings: MLTC-1 cells in vitro, read-out: ED50 MLTC-1
Experimental: as §3, §4, §5, §6, §7

`CCC1(O)CC(OC2CC(N(C)C)C(OC3CC(O)C(OC4CC(O)C(O)C(C)O4)C(C)O3)C(C)O2)c2c(O)c3c(c(O)c2C1C(=O)OC)C(=O)c1cccc(O)c1C3=O` (stereo not shown) [Compound H075-4a] showed an EC50 [1] of 1 nM, a pEC50 [2] of 8.30 and a pEC50 [3] of 8.05. The EC50 [4] was 50 nM, the pEC50 [5] was 8.70 and the “Median survival days (range)” value ([6]; 1 mg/kg i.p. on day 1) was 14 (13-15) days. The “Median survival days (range)” value ([6]; 2 mg/kg i.p. on day 1) was 14 (13-16) days, the “Median survival days (range)” value ([6]; 4 mg/kg i.p. on day 1) was 15 (13-15) days and the “Median survival days (range)” value ([6]; 6 mg/kg i.p. on day 1) was 15 (15-16) days. The pEC50 [7] was 8.70 and the pEC50 [8] was 7.22.
Work on `COc1cccc2c1C(=O)c1c(O)c3c(c(O)c1C2=O)C[C@@](O)(C(C)=O)C[C@@H]3O[C@H]1C[C@H](N)[C@H](O)[C@H](C)O1` [Daunorubicin] yielded an EC50 ([1]; Homo sapiens, 72 h) of 8 nM, a pEC50 ([2]; Mus musculus) of 7.05 and a pEC50 [3] of 8.52. For the same compound, the EC50 ([4]; Homo sapiens, 72 h) was 220 nM, the pEC50 ([5]; Mus musculus) was 8.10 and the “Median survival days (range)” value ([6]; 4 mg/kg i.p. on day 1) was 14 (14-16) days. The pEC50 ([7]; Mus musculus, B16F0) was 7.70 and the pEC50 ([8]; Mus musculus, Leydig) was 6.05.
